{"source": "patent US10750762B2", "about": "“Bio-based N-acetyl-L-methionine and use thereof” (CJ Cheiljedang Corporation, priority 2015, dated 2020)", "key": {"[1]": {"test_system": "extracts of bovine small intestine", "format": "in vitro ADME", "conditions": "Korean native cattle, 24 h", "method": "The small intestine (40 m) of Korean native cattle (record number: KOR005078680400), slaughtered in Bucheon livestock products market of National Agricultural Cooperative Federation, was purchased. After slicing the small intestine to around 1 m, 20 mM sodium phosphate buffer (pH 7.4, 5 mL) was added in the sliced small intestine. Thereafter, while holding each ends of the small intestine, the small intestine was repeatedly waggled to help most of enzymes in the small intestine to be dissolved by the sodium phosphate buffer. […]\n(§1) In order to remove protein in the sample which the reaction was over, perchloric acid (0.5%) was added therein and diluted 10-fold. Thereafter, the N-acetyl-L-methionine and L-methionine existing in the supernatant, which is separated by centrifugation at 14,000 for 10 minutes, were quantitatively analyzed (HPLC). Conversion rate (%) was calculated by comparing the molar concentrations (mM) between the N-acetyl-L-methionine prior to the reaction and the L-methionine after the reaction, in terms of the percentage (%) (the molecular weight of the N-acetyl-L-methionine: […]; and the molecular weight of the L-methionine: […]). […]"}, "extracts of bovine liver": {"test_system": "extracts of bovine liver", "test": "Digestive degradation by extracts of liver", "format": "in vitro ADME", "conditions": "Korean native cattle, 24 h", "method": "The liver of Korean native cattle (record number: KOR005078680400), slaughtered in Bucheon livestock products market of National Agricultural Cooperative Federation, was purchased. After mixing liver tissues (0.125 g) with 20 mM sodium phosphate buffer (pH 7.4, 1 mL), glass beads (Sigma G1145) were filled in about 1/10 of a tube (2 mL). The cell tissues were disrupted using a beadbeater (MP™ FastPrep) for three times with each 20 seconds, and the resultant was centrifuged at 4° C. at 14,000 rpm for 10 minutes to obtain supernatants.\nTo confirmed the enzymatic activity of the extracts obtained from small intestine and liver, acylase I (sigma A3010) extracted from pig kidney was used. […]\nas §1"}, "ruminal microflora": {"test_system": "ruminal microflora", "conditions": "male, Holstein, cattle, 2 mg/mL", "method": "One Holstein steer (weighing around 630 kg to 650 kg) equipped with ruminal cannula was provided for an experimental purpose, and the Holstein steer was bred by feeding the commercial feed (Milkgen™, CJ CheilJedang) and rice straws twice a day (7:30 a.m., 3:[…].).\nThe collection of ruminal fluid was carried out at 10 a.m. on the experimental day. Contents in the rumen were removed through a cannula, and gastric fluid was extracted with gauze by squeezing the same. Thereafter, the extracted gastric fluid was placed in a vacuum flask, and bubbled with CO2. The vacuum flak containing the gastric fluid was then carried to a laboratory while blocking a penetration of oxygen. It took less than an hour to carry the ruminal fluid to the laboratory.\nThe ruminal fluid carried to the laboratory was filtered with two layers of gauze, and then it was used as anaerobic culture medium by mixing the same with a biomimetic solution of McDougall's buffer (Troelsen and Donna, 1966), which is commonly used in the in vitro rumen bypass test, in a ratio of 1:3.\nA feed used in the experiment was the commercial feed (Milkgen™), a feed substantially used for cattle breeding, and the feed was also used as a basal diet. Further, the experimental samples were prepared by mixing the basal diet with a test material. The test material used in this experiment was N-acetyl-L-methionine, and this was used as an experimental group 1. The experimental group 1 was compared with the control group 1 composed of only the basal diet without the test material, and also compared with the control group 2 composed of the test material, L-methionine. The culture was carried out with three replications for each experimental group.\nThe basal diet and test material were mixed in a ratio of 4:1 (basic diet (0.4 g), test material (0.1 g); but only 0.5 g of basic diet in control group 1). The culture initiated when the mixed test material (0.5 g) was added in a culture bottle (125 mL), and then mixed it with the prepared anaerobic culture medium (50 mL), and placed in 40° C. incubator upon sealing of the same.\nO2 free CO2 was sprayed during the entire process including dilution of the ruminal fluid until the initiation of the culture, so that the ruminal fluid was not exposed to oxygen. Therefore, the anaerobic condition was maintained.\nThe culture was finally carried out for 48 hours, and sampling of the culture medium was carried out a total of four times (0 h, 24 h, 36 h, 48 h) upon the initiation of the culture. At each sampling, the sample placed in the 40° C. incubator was moved from the incubator and opened its lid. Thereafter, a supernatant was obtained by centrifuging the culture medium at 4000 rpm for 10 minutes, and then the amount of the test material present in the supernatant was measured.\nThe bypass rate (%) is represented as a residual amount (%) at time-points of 24 hours, 36 hours, and 48 hours, based on the amount of a test material at the time-point of 0 hour (100%)."}, "[2]": {"test": "Weight gain effect on feeding N-acetyl-L-methionine", "format": "in vivo, beef steers", "text": "The weight gain effect of beef steers was verified through feeding N-acetyl-L-methionine. For the verification, 24 beef steers were divided into two groups so that each group consisted of 12 beef steers. […] In the group with the addition of N-acetyl-L-methionine, each beef steer was fed with the N-acetyl-L-methionine (30 g) per a day."}, "[3]": {"test": "Milk production and composition on feeding N-acetyl-L-methionine", "format": "in vivo, dairy cows", "method": "Based on the in vitro evaluation, the N-acetyl-L-methionine, for which high digestive degradation rate in the small intestine and bypass rate in the rumen had been observed, was subjected to verify its efficiency through a substantial evaluation with dairy cows. In order for this, the cows were divided into two separated groups, and the change in milk composition depending on presence or absence of the N-acetyl-L-methionine was analyzed during the evaluation. For this, eight dairy cows were divided into two groups so that each group consists of four cows, respectively. Additionally, the N-acetyl-L-methionine was added to the feed composition (Table 12) which are fed by the four cows in one group (30 g of N-acetyl-L-methionine by each cow per a day), and it was carried out for 84 days. • Group 1: Non-addition of N-acetyl-L-methionine • Group 2: Addition of N-acetyl-L-methionine"}, "[4]": {"conditions": "30 g per steer per day, 90 days"}, "[5]": {"conditions": "30 g per cow per day in feed, 84 days"}}, "note": "Like-named read-outs stand apart in the source and are kept apart here."}
{"smiles": "CSCCC(NC(C)=O)C(=O)O", "note": "(racemic) [N-acetyl-D,L-methionine, reference compound]", "values": [{"measurement": "L-methionine (mM) after the reaction", "setting": "[1]", "value": 5.82, "unit": "mM"}, {"measurement": "L-methionine (mM) after the reaction", "setting": "extracts of bovine liver", "value": 6.36, "unit": "mM"}]}
{"smiles": "CSCC[C@H](N)C(=O)O", "note": "[L-methionine]", "values": [{"measurement": "Rate of rumen bypass (%), Average", "setting": "ruminal microflora; 0 h", "value": 100, "unit": "%"}, {"measurement": "Rate of rumen bypass (%), replicate 1", "setting": "ruminal microflora; 0 h", "value": 100, "unit": "%"}, {"measurement": "Rate of rumen bypass (%), replicate 2", "setting": "ruminal microflora; 0 h", "value": 100, "unit": "%"}, {"measurement": "Rate of rumen bypass (%), replicate 3", "setting": "ruminal microflora; 0 h", "value": 100, "unit": "%"}, {"measurement": "Rate of rumen bypass (%), Average", "setting": "ruminal microflora; 24 h", "value": 58.8, "unit": "%"}, {"measurement": "Rate of rumen bypass (%), replicate 1", "setting": "ruminal microflora; 24 h", "value": 51.2, "unit": "%"}, {"measurement": "Rate of rumen bypass (%), replicate 2", "setting": "ruminal microflora; 24 h", "value": 62.6, "unit": "%"}, {"measurement": "Rate of rumen bypass (%), replicate 3", "setting": "ruminal microflora; 24 h", "value": 62.7, "unit": "%"}, {"measurement": "Rate of rumen bypass (%), Average", "setting": "ruminal microflora; 36 h", "value": 36.0, "unit": "%"}, {"measurement": "Rate of rumen bypass (%), replicate 1", "setting": "ruminal microflora; 36 h", "value": 29.4, "unit": "%"}, {"measurement": "Rate of rumen bypass (%), replicate 2", "setting": "ruminal microflora; 36 h", "value": 42.3, "unit": "%"}, {"measurement": "Rate of rumen bypass (%), replicate 3", "setting": "ruminal microflora; 36 h", "value": 36.2, "unit": "%"}, {"measurement": "Rate of rumen bypass (%), Average", "setting": "ruminal microflora; 48 h", "value": 1.5, "unit": "%"}, {"measurement": "Rate of rumen bypass (%), replicate 1", "setting": "ruminal microflora; 48 h", "value": 1.9, "unit": "%"}, {"measurement": "Rate of rumen bypass (%), replicate 2", "setting": "ruminal microflora; 48 h", "value": 1.5, "unit": "%"}, {"measurement": "Rate of rumen bypass (%), replicate 3", "setting": "ruminal microflora; 48 h", "value": 0.9, "unit": "%"}]}
{"smiles": "CSCC[C@H](NC(C)=O)C(=O)O", "note": "[N-acetyl-L-methionine]", "values": [{"measurement": "Average daily weight gain", "setting": "[2]; [4]", "value": 1.48, "unit": "kg/day"}, {"measurement": "Weight of beef steer, 3 months after feeding", "setting": "[2]; [4]", "value": 382.1, "unit": "kg"}, {"measurement": "additional weight gain", "setting": "[2]; in comparison with one without the N-acetyl-L-methionine, 90 days", "value": 16.5, "unit": "kg"}, {"measurement": "Weight gain, rate of increase (%)", "setting": "[2]; vs non-addition group", "value": 14.2, "unit": "%"}, {"measurement": "Amount of production, 3.5% FCM (Fat-corrected milk)", "setting": "[3]; [5]", "value": 43.4, "unit": "kg/day"}, {"measurement": "Amount of production, ECM (Energy-corrected milk)", "setting": "[3]; [5]", "value": 42.9, "unit": "kg/day"}, {"measurement": "Feed efficiency, 3.5% FCM yield/DMI", "setting": "[3]; [5]", "value": 1.72}, {"measurement": "Feed efficiency, ECM yield/DMI", "setting": "[3]; [5]", "value": 1.70}, {"measurement": "Feed efficiency, Milk production/Feed intake (Milk yield/DMI)", "setting": "[3]; [5]", "value": 1.66}, {"measurement": "Production of milk ingredients, Milk fat", "setting": "[3]; [5]", "value": 1.56, "unit": "kg/day"}, {"measurement": "Production of milk ingredients, Milk protein", "setting": "[3]; [5]", "value": 1.18, "unit": "kg/day"}, {"measurement": "Rate of milk ingredients, Milk fat", "setting": "[3]; [5]", "value": 3.70, "unit": "%"}, {"measurement": "Rate of milk ingredients, Milk protein", "setting": "[3]; [5]", "value": 2.83, "unit": "%"}, {"measurement": "3.5% FCM production, rate of increase (%)", "setting": "[3]; vs non-addition group", "value": 7.4, "unit": "%"}, {"measurement": "ECM production, rate of increase (%)", "setting": "[3]; vs non-addition group", "value": 6.7, "unit": "%"}, {"measurement": "Feed efficiency 3.5% FCM yield/DMI, rate of increase (%)", "setting": "[3]; vs non-addition group", "value": 9.6, "unit": "%"}, {"measurement": "Feed efficiency ECM yield/DMI, rate of increase (%)", "setting": "[3]; vs non-addition group", "value": 8.3, "unit": "%"}, {"measurement": "Feed efficiency Milk yield/DMI, rate of increase (%)", "setting": "[3]; vs non-addition group", "value": 3.1, "unit": "%"}, {"measurement": "Production of milk ingredients, Milk fat, rate of increase (%)", "setting": "[3]; vs non-addition group", "value": 12.2, "unit": "%"}, {"measurement": "Production of milk ingredients, Milk protein, rate of increase (%)", "setting": "[3]; vs non-addition group", "value": 3.5, "unit": "%"}, {"measurement": "Rate of milk ingredients, Milk fat, rate of increase (%)", "setting": "[3]; vs non-addition group", "value": 10.8, "unit": "%"}, {"measurement": "Rate of milk ingredients, Milk protein, rate of increase (%)", "setting": "[3]; vs non-addition group", "value": 1.8, "unit": "%"}, {"measurement": "L-methionine (mM) after the reaction", "setting": "[1]", "value": 10.9, "unit": "mM"}, {"measurement": "Rate of rumen bypass (%), Average", "setting": "ruminal microflora; 0 h", "value": 100, "unit": "%"}, {"measurement": "Rate of rumen bypass (%), replicate 1", "setting": "ruminal microflora; 0 h", "value": 100, "unit": "%"}, {"measurement": "Rate of rumen bypass (%), replicate 2", "setting": "ruminal microflora; 0 h", "value": 100, "unit": "%"}, {"measurement": "Rate of rumen bypass (%), replicate 3", "setting": "ruminal microflora; 0 h", "value": 100, "unit": "%"}, {"measurement": "Rate of rumen bypass (%), Average", "setting": "ruminal microflora; 24 h", "value": 89.1, "unit": "%"}, {"measurement": "Rate of rumen bypass (%), replicate 1", "setting": "ruminal microflora; 24 h", "value": 87.5, "unit": "%"}, {"measurement": "Rate of rumen bypass (%), replicate 2", "setting": "ruminal microflora; 24 h", "value": 90.5, "unit": "%"}, {"measurement": "Rate of rumen bypass (%), replicate 3", "setting": "ruminal microflora; 24 h", "value": 89.4, "unit": "%"}, {"measurement": "Rate of rumen bypass (%), Average", "setting": "ruminal microflora; 36 h", "value": 76.2, "unit": "%"}, {"measurement": "Rate of rumen bypass (%), replicate 1", "setting": "ruminal microflora; 36 h", "value": 72.5, "unit": "%"}, {"measurement": "Rate of rumen bypass (%), replicate 2", "setting": "ruminal microflora; 36 h", "value": 80.1, "unit": "%"}, {"measurement": "Rate of rumen bypass (%), replicate 3", "setting": "ruminal microflora; 36 h", "value": 76.0, "unit": "%"}, {"measurement": "Rate of rumen bypass (%), Average", "setting": "ruminal microflora; 48 h", "value": 55.4, "unit": "%"}, {"measurement": "Rate of rumen bypass (%), replicate 1", "setting": "ruminal microflora; 48 h", "value": 52.6, "unit": "%"}, {"measurement": "Rate of rumen bypass (%), replicate 2", "setting": "ruminal microflora; 48 h", "value": 57.2, "unit": "%"}, {"measurement": "Rate of rumen bypass (%), replicate 3", "setting": "ruminal microflora; 48 h", "value": 56.5, "unit": "%"}]}
